Data from article PMC11571207, “Stereorandomized Oncocins with Preserved Ribosome Binding and Antibacterial Activity” (Journal of Medicinal Chemistry, 2024).
Where two headings read alike, the source gives them in different places. No end group written: not given here.

How the values were obtained:
[1] = tested on: K. pneumoniae OXA-48; test: microbe, parasite or virus in culture; conditions: for MIC K. pneumoniae OXA-48: supplement CSV
Method in brief: (§1)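 Minimal inhibitory concentrations come from broth microdilution in MH medium, with a top peptide concentration of 64 μg/mL halved serially.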

[2] = tested on: E. cloacae; test: microbe, parasite or virus in culture; conditions: for MIC E. cloacae: supplement CSV
Method in brief: as §1

[3] = tested on: P. aeruginosa PA14 2P4 (pmrB); test: microbe, parasite or virus in culture; conditions: for MIC P. aeruginosa PA14 2P4: supplement CSV
Method in brief: as §1

[4] = tested on: P. aeruginosa PA14; test: microbe, parasite or virus in culture; conditions: for MIC P. aeruginosa PA14: supplement CSV
Method in brief: as §1

[5] = tested on: P. aeruginosa ZEM9A; test: microbe, parasite or virus in culture; conditions: for MIC P. aeruginosa ZEM9A: supplement CSV
Method in brief: as §1

[6] = tested on: P. aeruginosa ZEM-1A; test: microbe, parasite or virus in culture; conditions: for MIC P. aeruginosa ZEM-1A: supplement CSV
Method in brief: as §1

[7] = tested on: K. pneumoniae NCTC 418; test: microbe, parasite or virus in culture; conditions: for MIC K. pneumoniae NCTC418: supplement CSV
Method in brief: (§2)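 Read-out was visible growth after MTT addition, the MIC being the lowest inhibitory peptide concentration. Bacteria grown to log phase in LB were exposed in MH medium to peptide from 64 μg/mL in twofold dilutions for 15-18h at 37°C.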

[8] = tested on: P. aeruginosa PAO1; test: microbe, parasite or virus in culture; conditions: for MIC P. aeruginosa PAO1: supplement CSV
Method in brief: as §2

[9] = tested on: E. coli W3110; test: microbe, parasite or virus in culture; conditions: for MIC E. coli W3110: supplement CSV
Method in brief: as §2

[10] = tested on: A. baumannii ATCC19606; test: microbe, parasite or virus in culture; conditions: for MIC A. baumannii ATCC19606: supplement CSV
Method in brief: as §2

[11] = tested on: S. aureus COL (MRSA); test: microbe, parasite or virus in culture; conditions: for MIC S. aureus COL (MRSA): supplement CSV
Method in brief: as §2

[12] = tested on: P. aeruginosa PA14 4.13 (phoQ); conditions: for MIC P. aeruginosa PA14 4.13: supplement CSV
[13] = tested on: P. aeruginosa PA14 4.18 (pmrB); conditions: for MIC P. aeruginosa PA14 4.18: supplement CSV
[14] = tested on: human red blood cells; test: Hemolysis assay, minimum hemolytic concentration
[15] = polymyxin B resistant strain, 12.5% MHB pH 7.4, 16–20 h at 37 °C
[16] = polymyxin B resistant strain, full MHB pH 7.4, 16–20 h at 37 °C

VDKPPYLPRPRPPRRIYNR [sr-Onc] (VDKPPYLPRPRPPRRIYNR-NH2; also: all 19 residues stereorandomized (1:1 L/D mixture))
MIC K. pneumoniae OXA-48, 12.5% MHB ([1]; carbapenem-resistant, 12.5% MHB pH 7.4, 16–20 h at 37 °C): >64/>64 μg/mL
MIC K. pneumoniae OXA-48, full MHB ([1]; carbapenem-resistant, full MHB pH 7.4, 16–20 h at 37 °C): >64/>64 μg/mL
MIC K. pneumoniae OXA-48 ([1]; 12.5% MH pH 7.4): >64 µg/mL
MIC K. pneumoniae OXA-48 ([1]; full MH pH 7.4): >64 µg/mL
MIC E. cloacae, 12.5% MHB ([2]; 12.5% MHB pH 7.4, 16–20 h at 37 °C): 8 µg/mL
MIC E. cloacae, full MHB ([2]; full MHB pH 7.4, 16–20 h at 37 °C): > 64 µg/mL
MIC E. cloacae ([2]; 12.5% MH pH 7.4): 8 µg/mL
MIC E. cloacae ([2]; full MH pH 7.4): >64 µg/mL
MIC P. aeruginosa PA14 2P4 (pmrB), 12.5% MHB [3, 15]: 16 µg/mL
MIC P. aeruginosa PA14 2P4 (pmrB), full MHB [3, 16]: > 64 µg/mL
MIC P. aeruginosa PA14 2P4 ([3]; 12.5% MH pH 7.4): 16 µg/mL
MIC P. aeruginosa PA14 2P4 ([3]; full MH pH 7.4): >64 µg/mL
MIC P. aeruginosa PA14, 12.5% MHB ([4]; 12.5% MHB pH 7.4, 16–20 h at 37 °C, two different duplicate MIC determinations): 32 µg/mL
MIC P. aeruginosa PA14, full MHB ([4]; full MHB pH 7.4, 16–20 h at 37 °C, two different duplicate MIC determinations): > 64 µg/mL
MIC P. aeruginosa PA14 ([4]; 12.5% MH pH 7.4): 32 µg/mL
MIC P. aeruginosa PA14 ([4]; full MH pH 7.4): >64 µg/mL
MIC P. aeruginosa ZEM9A, 12.5% MHB ([5]; clinical isolate, 12.5% MHB pH 7.4, 16–20 h at 37 °C): 32 µg/mL
MIC P. aeruginosa ZEM9A, full MHB ([5]; clinical isolate, full MHB pH 7.4, 16–20 h at 37 °C): > 64 µg/mL
MIC P. aeruginosa ZEM9A ([5]; 12.5% MH pH 7.4): 32 µg/mL
MIC P. aeruginosa ZEM9A ([5]; full MH pH 7.4): >64 µg/mL
MIC P. aeruginosa ZEM-1A, 12.5% MHB ([6]; clinical isolate, 12.5% MHB pH 7.4, 16–20 h at 37 °C, cells marked c: single measurement (in duplicates)): >64/64 ^c μg/mL
MIC P. aeruginosa ZEM-1A, full MHB ([6]; clinical isolate, full MHB pH 7.4, 16–20 h at 37 °C, cells marked c: single measurement (in duplicates)): >64/64 ^c μg/mL
MIC P. aeruginosa ZEM-1A ([6]; 12.5% MH pH 7.4): 64 µg/mL
MIC P. aeruginosa ZEM-1A ([6]; full MH pH 7.4): >64 µg/mL
MIC K. pneumoniae, 12.5% MHB ([7]; K. pneumoniae NCTC 418, 12.5% Müller–Hinton medium, 16–20 h at 37 °C): > 16 µg/mL
MIC K. pneumoniae, Full MHB ([7]; K. pneumoniae NCTC 418, full Müller–Hinton medium, 16–20 h at 37 °C): > 64 µg/mL
MIC K. pneumoniae NCTC418 ([7]; 12.5% MH pH 7.4): >16 µg/mL
MIC K. pneumoniae NCTC418 ([7]; full MH pH 7.4): >64 µg/mL
MIC P. aeruginosa, 12.5% MHB ([8]; P. aeruginosa PAO1, 12.5% Müller–Hinton medium, 16–20 h at 37 °C): 8 µg/mL
MIC P. aeruginosa, Full MHB ([8]; P. aeruginosa PAO1, full Müller–Hinton medium, 16–20 h at 37 °C): > 64 µg/mL
MIC P. aeruginosa PAO1 ([8]; 12.5% MH pH 7.4): 8 µg/mL
MIC P. aeruginosa PAO1 ([8]; full MH pH 7.4): >64 µg/mL
MIC E. coli, 12.5% MHB ([9]; E. coli W3110, 12.5% Müller–Hinton medium, 16–20 h at 37 °C, broth microdilution): 8 µg/mL
MIC E. coli, Full MHB ([9]; E. coli W3110, full Müller–Hinton medium, 16–20 h at 37 °C, broth microdilution): 32 µg/mL
MIC E. coli W3110 ([9]; 12.5% MH pH 7.4): 8 µg/mL
MIC E. coli W3110 ([9]; full MH pH 7.4): 32 µg/mL
MIC A. baumannii, 12.5% MHB ([10]; A. baumannii ATCC19606, 12.5% Müller–Hinton medium, 16–20 h at 37 °C): 8 µg/mL
MIC A. baumannii, Full MHB ([10]; A. baumannii ATCC19606, full Müller–Hinton medium, 16–20 h at 37 °C): 32 µg/mL
MIC A. baumannii ATCC19606 ([10]; 12.5% MH pH 7.4): 8 µg/mL
MIC A. baumannii ATCC19606 ([10]; full MH pH 7.4): 32 µg/mL
MIC S. aureus, 12.5% MHB ([11]; S. aureus COL (MRSA), 12.5% Müller–Hinton medium, 16–20 h at 37 °C): >64 / >64 μg/mL
MIC S. aureus, Full MHB ([11]; S. aureus COL (MRSA), full Müller–Hinton medium, 16–20 h at 37 °C): >64 / >64 μg/mL
MIC S. aureus COL (MRSA) ([11]; 12.5% MH pH 7.4): >64 µg/mL
MIC S. aureus COL (MRSA) ([11]; full MH pH 7.4): >64 µg/mL
MIC P. aeruginosa PA14 4.13 (phoQ), 12.5% MHB [12, 15]: 16 µg/mL
MIC P. aeruginosa PA14 4.13 (phoQ), full MHB [12, 16]: > 64 µg/mL
MIC P. aeruginosa PA14 4.13 ([12]; 12.5% MH pH 7.4): 16 µg/mL
MIC P. aeruginosa PA14 4.13 ([12]; full MH pH 7.4): >64 µg/mL
MIC P. aeruginosa PA14 4.18 (pmrB), 12.5% MHB [13, 15]: 32 µg/mL
MIC P. aeruginosa PA14 4.18 (pmrB), full MHB [13, 16]: > 64 µg/mL
MIC P. aeruginosa PA14 4.18 ([13]; 12.5% MH pH 7.4): 32 µg/mL
MIC P. aeruginosa PA14 4.18 ([13]; full MH pH 7.4): >64 µg/mL
Haemolysis on hRBC, MHC ([14]; 2.5% human red blood cells (final) in 10 mM phosphate, 150 mM NaCl, pH 7.4, 25 °C, 4 h, visual inspection): >1000 µg/mL
MHC human red blood cells ([14]; supplement CSV): >1000 µg/mL
